Measurements reported in PubChem BioAssay (NCI).
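Test compounds were applied to cells in 96-well plates for 48 hours at 5 doses. Abbreviation: GI50, concentration required for 50% inhibition of growth. TGI marks complete inhibition of growth.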

Columns and labels:
Experiment in all cases: DTP human tumour cell line panel, 48 h
HCC-2998 colon = tested on: HCC-2998 colon
K-562 leukemia = tested on: K-562 leukemia
CCRF-CEM leukemia = tested on: CCRF-CEM leukemia
A498 renal = tested on: A498 renal
RPMI-8226 leukemia = tested on: RPMI-8226 leukemia
MCF7 breast = tested on: MCF7 breast
NCI-H460 lung = tested on: NCI-H460 lung
CAKI-1 renal = tested on: CAKI-1 renal
OVCAR-8 ovarian = tested on: OVCAR-8 ovarian
MALME-3M melanoma = tested on: MALME-3M melanoma
SW-620 colon = tested on: SW-620 colon
MDA-MB-435 = tested on: MDA-MB-435
RXF 393 renal = tested on: RXF 393 renal
MDA-MB-231 breast = tested on: MDA-MB-231 breast
SR leukemia = tested on: SR leukemia
TK-10 renal = tested on: TK-10 renal
SNB-19 CNS = tested on: SNB-19 CNS
A549 NSCLC = tested on: A549 NSCLC
SF-268 CNS = tested on: SF-268 CNS
SF-295 CNS = tested on: SF-295 CNS
HOP-62 NSCLC = tested on: HOP-62 NSCLC
LOX IMVI melanoma = tested on: LOX IMVI melanoma
HS 578T breast = tested on: HS 578T breast
MDA-N = tested on: MDA-N
OVCAR-3 ovarian = tested on: OVCAR-3 ovarian
UACC-257 melanoma = tested on: UACC-257 melanoma
NCI/ADR-RES ovarian = tested on: NCI/ADR-RES ovarian
T-47D breast = tested on: T-47D breast
NCI-H23 lung = tested on: NCI-H23 lung
SF-539 CNS = tested on: SF-539 CNS
SK-OV-3 ovarian = tested on: SK-OV-3 ovarian
DU-145 prostate = tested on: DU-145 prostate
SNB-75 CNS = tested on: SNB-75 CNS
EKVX NSCLC = tested on: EKVX NSCLC
OVCAR-4 ovarian = tested on: OVCAR-4 ovarian
PC-3 prostate = tested on: PC-3 prostate
HCT-15 colon = tested on: HCT-15 colon
ACHN renal = tested on: ACHN renal
SK-MEL-2 melanoma = tested on: SK-MEL-2 melanoma
HL-60(TB) leukemia = tested on: HL-60(TB) leukemia
OVCAR-5 ovarian = tested on: OVCAR-5 ovarian
M14 melanoma = tested on: M14 melanoma
IGROV1 ovarian = tested on: IGROV1 ovarian
NCI-H522 lung = tested on: NCI-H522 lung
SK-MEL-5 melanoma = tested on: SK-MEL-5 melanoma
MOLT-4 leukemia = tested on: MOLT-4 leukemia
786-0 renal = tested on: 786-0 renal
HT29 colon = tested on: HT29 colon
U251 CNS = tested on: U251 CNS
HCT-116 colon = tested on: HCT-116 colon
UO-31 renal = tested on: UO-31 renal
HOP-92 NSCLC = tested on: HOP-92 NSCLC
UACC-62 melanoma = tested on: UACC-62 melanoma
COLO 205 colon = tested on: COLO 205 colon
BT-549 breast = tested on: BT-549 breast
SN12C renal = tested on: SN12C renal
KM12 colon = tested on: KM12 colon
SK-MEL-28 melanoma = tested on: SK-MEL-28 melanoma
NCI-H226 lung = tested on: NCI-H226 lung

With `Cc1ccc2c(c1)C(=O)C1(C2)Cc2ccc(C)cc2C1=O` the TGI (HCC-2998 colon) was over 100000 nM, the TGI (K-562 leukemia) was over 100000 nM and the TGI (CCRF-CEM leukemia) was over 100000 nM. For the same compound, the TGI (A498 renal) was over 100000 nM, the TGI (RPMI-8226 leukemia) was over 100000 nM and the TGI (MCF7 breast) was over 100000 nM. The TGI (NCI-H460 lung) was over 100000 nM, the TGI (CAKI-1 renal) was over 100000 nM and the TGI (OVCAR-8 ovarian) was over 100000 nM. The TGI (MALME-3M melanoma) was over 100000 nM, the TGI (SW-620 colon) was over 100000 nM and the TGI (MDA-MB-435) was over 100000 nM. For the same compound, the TGI (RXF 393 renal) was over 100000 nM, the TGI (MDA-MB-231 breast) was over 100000 nM and the TGI (SR leukemia) was over 100000 nM. The TGI (TK-10 renal) was over 100000 nM, the TGI (SNB-19 CNS) was over 100000 nM and the TGI (A549 NSCLC) was over 100000 nM. For the same compound, the TGI (SF-268 CNS) was over 100000 nM, the TGI (SF-295 CNS) was over 100000 nM and the TGI (HOP-62 NSCLC) was over 100000 nM. For the same compound, the TGI (LOX IMVI melanoma) was over 100000 nM, the TGI (HS 578T breast) was over 100000 nM and the TGI (MDA-N) was over 100000 nM. The TGI (OVCAR-3 ovarian) was over 100000 nM, the TGI (UACC-257 melanoma) was over 100000 nM and the TGI (NCI/ADR-RES ovarian) was over 100000 nM. For the same compound, the TGI (T-47D breast) was over 100000 nM, the TGI (NCI-H23 lung) was over 100000 nM and the TGI (SF-539 CNS) was over 100000 nM. It also gave a TGI (SK-OV-3 ovarian) of over 100000 nM, a TGI (DU-145 prostate) of over 100000 nM and a TGI (SNB-75 CNS) of over 100000 nM. For the same compound, the TGI (EKVX NSCLC) was over 100000 nM, the TGI (OVCAR-4 ovarian) was over 100000 nM and the TGI (PC-3 prostate) was over 100000 nM. For the same compound, the TGI (HCT-15 colon) was over 100000 nM, the TGI (ACHN renal) was over 100000 nM and the TGI (SK-MEL-2 melanoma) was over 100000 nM. For the same compound, the TGI (HL-60(TB) leukemia) was over 100000 nM, the TGI (OVCAR-5 ovarian) was over 100000 nM and the TGI (M14 melanoma) was over 100000 nM. It also gave a TGI (IGROV1 ovarian) of over 100000 nM, a TGI (NCI-H522 lung) of over 100000 nM and a TGI (SK-MEL-5 melanoma) of over 100000 nM. It also gave a TGI (MOLT-4 leukemia) of over 100000 nM, a TGI (786-0 renal) of over 100000 nM and a TGI (HT29 colon) of over 100000 nM. It also gave a TGI (U251 CNS) of over 100000 nM, a TGI (HCT-116 colon) of over 100000 nM and a TGI (UO-31 renal) of over 100000 nM. The TGI (HOP-92 NSCLC) was over 100000 nM.

`COc1cccc2c1[C@H](OC)[C@]13O[C@@]1(C2=O)[C@H](O)[C@H](C)[C@@](O)(C(=O)[C@@H]1O[C@H]1C)[C@@H]3O` showed a TGI (K-562 leukemia) of over 100000 nM, a TGI (CCRF-CEM leukemia) of 555 nM and a TGI (UACC-62 melanoma) of 877 nM. The TGI (A498 renal) was 585 nM, the TGI (RPMI-8226 leukemia) was 411 nM and the TGI (MCF7 breast) was 4860 nM. For the same compound, the GI50 (NCI-H460 lung) was 211 nM, the TGI (NCI-H460 lung) was 617 nM and the TGI (CAKI-1 renal) was 880 nM. For the same compound, the TGI (OVCAR-8 ovarian) was 610 nM, the TGI (MALME-3M melanoma) was 523 nM and the TGI (COLO 205 colon) was 415 nM. It also gave a TGI (MDA-MB-435) of 518 nM, a TGI (RXF 393 renal) of 1100 nM and a TGI (MDA-MB-231 breast) of 977 nM. It also gave a TGI (TK-10 renal) of 10700 nM, a TGI (A549 NSCLC) of 729 nM and a TGI (SF-268 CNS) of 1220 nM. For the same compound, the TGI (BT-549 breast) was 1280 nM, the TGI (SF-295 CNS) was 558 nM and the TGI (HOP-62 NSCLC) was 1590 nM. It also gave a TGI (LOX IMVI melanoma) of 648 nM, a GI50 (SN12C renal) of 48.9 nM and a TGI (SN12C renal) of 819 nM. It also gave a TGI (HS 578T breast) of 618 nM, a TGI (MDA-N) of 768 nM and a TGI (OVCAR-3 ovarian) of 1960 nM. It also gave a TGI (UACC-257 melanoma) of 527 nM, a TGI (NCI/ADR-RES ovarian) of over 100000 nM and a TGI (NCI-H23 lung) of 541 nM. It also gave a TGI (SF-539 CNS) of 975 nM, a TGI (KM12 colon) of over 36500 nM and a TGI (SK-MEL-28 melanoma) of 654 nM. For the same compound, the TGI (SK-OV-3 ovarian) was 1470 nM, the TGI (SNB-75 CNS) was 544 nM and the TGI (NCI-H226 lung) was 1200 nM. For the same compound, the TGI (EKVX NSCLC) was 616 nM, the TGI (OVCAR-4 ovarian) was 555 nM and the TGI (HCT-15 colon) was 2070 nM. It also gave a TGI (ACHN renal) of 700 nM, a TGI (SK-MEL-2 melanoma) of 384 nM and a TGI (OVCAR-5 ovarian) of 2050 nM. It also gave a GI50 (M14 melanoma) of 197 nM, a TGI (M14 melanoma) of 395 nM and a TGI (IGROV1 ovarian) of 576 nM. It also gave a TGI (NCI-H522 lung) of 403 nM, a TGI (SK-MEL-5 melanoma) of 386 nM and a TGI (MOLT-4 leukemia) of over 47600 nM. The TGI (786-0 renal) was 2520 nM, the GI50 (HT29 colon) was 251 nM and the TGI (HT29 colon) was 1110 nM. The TGI (U251 CNS) was 3100 nM, the TGI (UO-31 renal) was 647 nM and the TGI (HOP-92 NSCLC) was 723 nM.
